Source: paper PMC7012052, “Discovery of antimicrobial compounds targeting bacterial type FAD synthetases” (Journal of Enzyme Inhibition and Medicinal Chemistry, 2017)
Converted amounts (≈) assume the structure as drawn. Structures can show the parent of a compound that is named as a salt. Where two headings read alike, the source gives them in different places. Marks after values point to notes of the source that are not given here.

Assays:
CaFADS RFK activity = molecular target: T1, CaFADS RFK activity (Corynebacterium ammoniagenes, UniProt Q59263); experiment: RFK activity of CaFADS in the presence of HTS hits (flavins separated by HPLC); format: biochemical; conditions: pH 7, read-out: % Residual RFK activity
T1 construct: Recombinant CaFADS was overexpressed in BL21 (DE3) E. coli cells and purified as previously described; made in house; host or cells: E. coli BL21 (DE3)
T1 sequence (Q59263 whole entry): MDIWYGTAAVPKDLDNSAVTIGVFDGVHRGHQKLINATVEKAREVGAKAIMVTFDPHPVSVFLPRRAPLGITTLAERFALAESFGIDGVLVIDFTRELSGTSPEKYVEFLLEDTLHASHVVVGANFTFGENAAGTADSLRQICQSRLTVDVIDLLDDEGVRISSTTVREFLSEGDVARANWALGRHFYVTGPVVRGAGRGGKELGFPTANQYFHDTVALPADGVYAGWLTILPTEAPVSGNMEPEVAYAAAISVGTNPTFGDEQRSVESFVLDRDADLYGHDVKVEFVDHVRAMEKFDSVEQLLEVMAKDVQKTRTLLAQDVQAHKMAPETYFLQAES
Procedure: (§1) Then, the RFK and FMNAT reactions were individually assayed in the presence of the HTS hits at 25 °C. Reaction mixtures contained 50 µM ATP, 5 µM RF, 0.4 µM CaFADS in 20 mM PIPES, pH 7.0, 0.8 mM MgCl2, when assaying the RFK activity, and 50 µM ATP, 10 µM FMN, 0.4 µM CaFADS in 20 mM PIPES, pH 7.0, 10 mM MgCl2 when measuring the FMNAT reaction. […] Finally, reactions were stopped by boiling the samples at 100 °C for 5 min, and the precipitated protein was eliminated through centrifugation. The transformation of RF into FMN or FAD was evaluated through flavins separation by HPLC, as previously described. […] When assaying the HTS hits against the FMNAT activity of SpnFADS, similar conditions were used but samples contained 3 mM sodium dithionite to maintain the flavin in its reduced state. Data were processed as previously reported. All the experiments were performed in triplicate.

[1] = tested on: M. tuberculosis ATCC 27,294; experiment: MIC by resazurin microplate assay (broth microdilution); format: cell-based, Mycobacterium tuberculosis
CaFADS FMNAT activity = molecular target: T2, CaFADS FMNAT activity (Corynebacterium ammoniagenes, UniProt Q59263); experiment: FMNAT activity of CaFADS: residual activity, IC50, inhibition mechanism (HPLC); format: biochemical; conditions: for Inhibition mechanism / Ki: CaFADS FMNAT; for Ki: global Lineweaver–Burk fit; for remaining activity at 250 µM: pH 7, read-out: % Residual FMNAT activity; for remaining activity at 50 µM: read-out: Residual activity (FMNAT)
T2 construct: Recombinant CaFADS was overexpressed in BL21 (DE3) E. coli cells and purified as previously described; made in house; host or cells: E. coli BL21 (DE3)
T2 sequence (Q59263 whole entry): as above
Procedure: as §1
(§2) Experiments were performed and analysed through HPLC as described above. Positive controls (without any hit compound) were included in every reaction set. DMSO concentration was kept at 2.5% in all samples. All the experiments were performed in triplicate.
All the experiments were carried out in 20 mM PIPES, 10 mM MgCl2, pH 7.0, 2.5% DMSO at 25 °C, being the final reaction volume 500 µl. The reactions were initiated by addition of CaFADS at a final concentration of ∼40 nM, followed by 1 min incubation. The flavin composition of the supernatant was analysed as previously described. All the experiments were performed in triplicate. The effect of the inhibitors on Km and Vmax was determined by fitting the data sets to the Michaelis–Menten model. Additionally, data were globally fit to Lineweaver–Burk equations for competitive, uncompetitive, non-competitive or mixed inhibition, yielding Ki, as well as Ki′ when applying, for each compound (Equations (1–4), respectively).

S. pneumoniae ATCC 49619 = experiment: MIC by resazurin microplate assay (broth microdilution); format: cell-based, Streptococcus pneumoniae
[2] = tested on: C. ammoniagenes ATCC 6872; experiment: as above; format: cell-based, Corynebacterium ammoniagenes; conditions: Corynebacterium ammoniagenes, ATCC6872, 16 h
SpnFADS RFK activity = SpnFADS RFK activity (Streptococcus pneumoniae, UniProt A0A0H2UPY5); experiment: biochemical
Sequence of SpnFADS RFK activity (A0A0H2UPY5 entry or part of it): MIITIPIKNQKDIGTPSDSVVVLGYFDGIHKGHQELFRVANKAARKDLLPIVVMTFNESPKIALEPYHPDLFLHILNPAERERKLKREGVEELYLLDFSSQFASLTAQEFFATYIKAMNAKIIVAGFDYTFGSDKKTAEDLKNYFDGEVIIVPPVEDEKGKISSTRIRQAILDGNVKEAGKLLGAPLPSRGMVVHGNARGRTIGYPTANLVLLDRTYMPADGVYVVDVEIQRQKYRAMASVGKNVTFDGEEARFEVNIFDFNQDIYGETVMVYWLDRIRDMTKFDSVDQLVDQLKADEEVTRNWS
Procedure: as §1, §2

SpnFADS FMNAT activity = SpnFADS FMNAT activity (Streptococcus pneumoniae, UniProt A0A0H2UPY5); experiment: biochemical; conditions: for activity at 100 µM: 100 μM of each compound, n = 3, mean ± SD
Sequence of SpnFADS FMNAT activity (A0A0H2UPY5 entry or part of it): as above
Procedure: as §1, §2

CaFADS = molecular target: T3, CaFADS (Corynebacterium ammoniagenes, UniProt Q59263); experiment: Isothermal titration calorimetry (ITC) of hits binding to CaFADS; conditions: ITC 25 °C
T3 construct: Recombinant CaFADS was overexpressed in BL21 (DE3) E. coli cells and purified as previously described; made in house; host or cells: E. coli BL21 (DE3)
T3 sequence (Q59263 whole entry): as the sequence (Q59263 whole entry) above
Procedure: ITC experiments were performed to characterise the protein’s affinity for the selected compounds, as also the thermodynamic parameters that drive the interaction. Experiments were carried out in an AutoITC200 (MicroCal) thermostated at 25 °C. In these experiments, ∼400 µM of each compound were used to titrate ∼25 µM CaFADS contained in a 200 µL cell. However, when saturation of the protein was not reached, higher concentrations of compounds were employed. The titrations were performed by stepwise injections of the titrating compound. Up to 19 injections of 2 µl were added to the cell sample and mixed using a 1000 rpm stirrer syringe. The compounds and the protein were dissolved in 20 mM PIPES, pH 7.0, 10 mM MgCl2 and degassed prior to titration. DMSO was added to the protein and ligand samples, until reach a final concentration of 3%. The association constant (Ka), the enthalpy variation (ΔH) and the binding stoichiometry (N), were obtained through non-lineal regression of the data to a model for one or two independent binding sites, implemented in Origin 7.0 (OriginLab) as previously described[27]^,[29]. The entropic contribution (−TΔS), the Gibbs free energy (ΔG) and the dissociation constant (Kd) were obtained through essential thermodynamic equations.

[3] = Mycobacterium tuberculosis, ATCC27, 144 h; read-out: Minimal inhibitory concentration (MIC) M. tuberculosis
[4] = saturating ATP (regarding the FMN substrate)
[5] = saturating FMN (regarding the ATP substrate)
[6] = saturating ATP, varying FMN, inhibitor 0.2 μM
[7] = saturating ATP, varying FMN, inhibitor […]
[8] = saturating FMN, varying ATP, inhibitor 0.2 μM
[9] = saturating FMN, varying ATP, inhibitor 0.4 μM
[10] = saturating FMN, varying ATP, inhibitor […]
[11] = Streptococcus pneumoniae, ATCC49619, 10 h; read-out: Minimal inhibitory concentration (MIC) S. pneumoniae
[12] = read-out: Minimal inhibitory concentration (MIC) C. ammoniagenes
[13] = SpnFADS, compounds assayed 0–100 μM, 25 °C, read-out: RFK activity IC50
[14] = read-out: RFK activity Res. activity
[15] = SpnFADS, 25 °C, read-out: FMNAT activity Res. activity
[16] = SpnFADS, compounds assayed 0–100 μM, 25 °C, read-out: FMNAT activity IC50
[17] = for 24: Site 1–2, average value where N ≈ 2
[18] = read-out: Minimal inhibitory concentration (MIC) C. ammoniagenes, assayed 0.125–64 μM, 16 h at 37 °C, BHI

| SMILES | remaining activity at 250 µM (CaFADS RFK activity) [%] | MIC [1, 3] [µM] | IC50 (CaFADS FMNAT activity) [nM] | Inhibition mechanism (CaFADS FMNAT activity; [4]) | Inhibition mechanism (CaFADS FMNAT activity; [5]) | Ki (CaFADS FMNAT activity; saturating ATP, varying FMN) [nM] | Ki (CaFADS FMNAT activity; saturating FMN, varying ATP) [nM] | remaining activity at 250 µM (CaFADS FMNAT activity) [%] | remaining activity at 50 µM (CaFADS FMNAT activity) [%] | apparent kcat (CaFADS FMNAT activity; [6]) [s⁻¹] | apparent kcat (CaFADS FMNAT activity; [7]) [s⁻¹] | apparent kcat (CaFADS FMNAT activity; [8]) [s⁻¹] | apparent kcat (CaFADS FMNAT activity; [9]) [s⁻¹] | apparent kcat (CaFADS FMNAT activity; [10]) [s⁻¹] | MIC (S. pneumoniae ATCC 49619; [11]) [µM] | MIC [2, 12] [µM] | IC50 (SpnFADS RFK activity; [13]) [nM] | activity at 100 µM (SpnFADS RFK activity; [14]) [%] | activity at 100 µM (SpnFADS FMNAT activity; [15]) [%] | IC50 (SpnFADS FMNAT activity; [16]) [nM] | further results |
| --- | --- | --- | --- | --- | --- | --- | --- | --- | --- | --- | --- | --- | --- | --- | --- | --- | --- | --- | --- | --- | --- |
| COc1cc(-c2ccc(/N=N/c3ccc4c(S(=O)(=O)O)cc(S(=O)(=O)O)c(N)c4c3O)c(OC)c2)ccc1/N=N/c1ccc2c(S(=O)(=O)O)cc(S(=O)(=O)O)c(N)c2c1O [HTS hit 24, Chicago sky blue 6B] | ≥ 75 | 16 to 32 (≈ 14.5 to 29 µg/mL) | 400 ± 100 | Non-competitive | Uncompetitive | 70 ± 10 | 80 ± 30 | ≤ 5 | 3.6 ± 0.2 | 0.163 ± 0.0217 | 0.405 ± 0.0683 | 0.0717 ± 0.0067 | 0.03 ± 0.0017 | 0.12 ± 0.0067 | > 64 | 16 to 32 (≈ 14.5 to 29 µg/mL) | > 100000 | 84 ± 9 | 0 | 70000 ± 6000 | apparent kcat (CaFADS FMNAT activity; saturating ATP, varying FMN, inhibitor 0.4 μM): 0.0933 ± 0.01 s⁻¹; apparent kcat (CaFADS FMNAT activity; saturating ATP, varying FMN, inhibitor 0.6 μM): 0.095 ± 0.0217 s⁻¹; apparent kcat (CaFADS FMNAT activity; saturating FMN, varying ATP, inhibitor 0.04 μM): 0.375 ± 0.08 s⁻¹; N (binding stoichiometry) (CaFADS; 3% DMSO, for 24: Site 1–2): ≈ 2; ΔG (CaFADS; Site 3): -5.2 ± 0.7 kcal/mol; ΔH (CaFADS; Site 3): 18.4 ± 2.2 kcal/mol; −TΔS (CaFADS; Site 3): -23.6 ± 1.9 kcal/mol; N (binding stoichiometry) (CaFADS; Site 3 (low affinity site)): ≈ 1; ΔG (CaFADS; [17]): −8.1 ± 1.0^a kcal/mol; ΔH (CaFADS; [17]): −4.2 ± 0.5^a kcal/mol; −TΔS (CaFADS; [17]): −3.9 ± 0.5^a kcal/mol; Kd (CaFADS; Kd, 3% DMSO, for 24: Site 1–2, average value for two hit molecules where N ≈ 2): 1100 ± 100 nM; Kd (CaFADS; Kd, Site 3 (low affinity site)): 161000 ± 20000 nM |
| Cc1cc2c(C(C)C)c(O)c(O)c(C=O)c2c(O)c1-c1c(C)cc2c(C(C)C)c(O)c(O)c(C=O)c2c1O [HTS hit 27, gossypol] | ≥ 75 | – | 500 ± 100 | Non-competitive | Competitive | 80 ± 10 | 60 ± 10 | ≤ 5 | 6.9 ± 0.8 | 0.252 ± 0.025 | 0.167 ± 0.013 | 0.37 ± 0.0233 | 0.302 ± 0.0267 | 0.285 ± 0.055 | – | – | – | – | – | – | MIC ([1]; Mycobacterium tuberculosis, ATCC27, 144 h, read-out: Minimal inhibitory concentration (MIC) M. tuberculosis): > 64 µM; apparent kcat (CaFADS FMNAT activity; saturating ATP, varying FMN, inhibitor 0.05 μM): 0.36 ± 0.0483 s⁻¹; apparent kcat (CaFADS FMNAT activity; saturating ATP, varying FMN, inhibitor 0.1 μM): 0.268 ± 0.0283 s⁻¹; apparent kcat (CaFADS FMNAT activity; saturating ATP, varying FMN, inhibitor 1 μM): 0.108 ± 0.0033 s⁻¹; apparent kcat (CaFADS FMNAT activity; saturating FMN, varying ATP, inhibitor 0.1 μM): 0.38 ± 0.0217 s⁻¹; apparent kcat (CaFADS FMNAT activity; saturating FMN, varying ATP, inhibitor 1 μM): 0.208 ± 0.0083 s⁻¹; MIC (S. pneumoniae ATCC 49619; Streptococcus pneumoniae, ATCC49619, 10 h, read-out: Minimal inhibitory concentration (MIC) S. pneumoniae): > 64 µM; MIC [2, 18]: ~64 µM (≈ 33.2 µg/mL); IC50 (SpnFADS RFK activity; RFK activity IC50, SpnFADS, compounds assayed 0–100 μM, 25 °C): 6000 ± 1000 nM; remaining activity at 100 µM (SpnFADS RFK activity; [14]): 25 ± 4%; IC50 (SpnFADS FMNAT activity): 51000 ± 6000 nM; remaining activity at 100 µM (SpnFADS FMNAT activity; read-out: FMNAT activity Res. activity): 0%; N (binding stoichiometry) (CaFADS; 3% DMSO, for 24: Site 1–2): ≈ 2; Kd (CaFADS; 3% DMSO, for 24: Site 1–2, average value for two hit molecules where N ≈ 2, read-out: Kd): 700 ± 70 nM; ΔG (CaFADS; [17]): −8.4 ± 0.9^a kcal/mol; ΔH (CaFADS; [17]): −3.1 ± 0.1^a kcal/mol; −TΔS (CaFADS; [17]): −5.3 ± 0.4^a kcal/mol |
| CCCCC(CC)CNC(=N)NC(=N)NCCCCCCNC(=N)NC(=N)NCC(CC)CCCC (centres unmarked) [HTS hit 33, alexidine dihydrochloride] | ≤ 5 | 2 to 4 | – | – | – | – | – | ≤ 5 | – | – | – | – | – | – | 0.5 | 0.125 | 33000 ± 4000 | – | 93 ± 11 | > 100000 | Minimal inhibitory concentration (MIC) M. tuberculosis ([1]; assayed 0.125–64 μM; 6 days at 37 °C, Middlebrook 7H9): below 8 μM; MIC [2, 18]: < 2 µM; activity at 100 µM (SpnFADS RFK activity; SpnFADS, 100 μM of each compound, 25 °C, n = 3, mean ± SD, read-out: RFK activity Res. activity): 26 ± 3% |
| CC(C)n1c(/C=C/C(O)CC(O)CC(=O)O)c(-c2ccc(F)cc2)c2ccccc21 (centres unmarked) [HTS hit 37, fluvastatin sodium salt] | ≤ 5 | > 64 | – | – | – | – | – | ≤ 5 | – | – | – | – | – | – | > 64 | > 64 | – | 96 ± 10 | 0 | 7000 ± 1000 | IC50 (SpnFADS RFK activity): > 100000 nM |
